Experimental data from ChEMBL document CHEMBL1124911, “Inhibition of human leukocyte elastase. 2. Inhibition by substituted cephalosporin esters and amides” (J Med Chem, 1990).

Columns and labels:
[1] = target: T1, Neutrophil elastase (Homo sapiens) (UniProt P08246)
T1 sequence (whole entry): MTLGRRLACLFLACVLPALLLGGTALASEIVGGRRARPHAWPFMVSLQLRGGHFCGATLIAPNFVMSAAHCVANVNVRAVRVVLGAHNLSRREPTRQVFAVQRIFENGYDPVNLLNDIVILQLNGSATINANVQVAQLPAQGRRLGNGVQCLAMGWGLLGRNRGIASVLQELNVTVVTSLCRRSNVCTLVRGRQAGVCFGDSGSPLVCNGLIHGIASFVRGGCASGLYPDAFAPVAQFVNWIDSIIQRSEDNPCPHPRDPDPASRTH
Description: Second-order rate constant for time-dependent inactivation of leukocyte elastase

Neutrophil elastase = target: T2, Neutrophil elastase (Homo sapiens, UniProt P08246); assay: In vitro inhibition of Human Leukocyte Elastase (HLE)
T2 sequence (P08246 whole entry): T1 sequence (whole entry)

[2] = target: T1, Neutrophil elastase (Homo sapiens); remark: listed apart in the source
Description: Second-order rate constant for time-dependent inactivation of Human Leukocyte Elastase was determined; H means an inverse progress curve was observed

[3] = target: T1, Neutrophil elastase (Homo sapiens); remark: listed apart in the source
[4] = target: T1, Neutrophil elastase (Homo sapiens); assay: Second-order rate constant for time-dependent inactivation of Human Leukocyte Elastase was determined; G means no time-dependent inhibition was observed

Compound | K obs / 1 [1] [M⁻¹ s⁻¹] | IC50 (Neutrophil elastase) [nM] | also measured
CO[C@H]1C(=O)N2C(C(=O)NC(C)(C)C)=C(COC(C)=O)CS(=O)(=O)[C@H]12 | 2200 | 800 | –
CO[C@H]1C(=O)N2C(C(=O)NCCC(=O)O)=C(COC(C)=O)CS(=O)(=O)[C@H]12 | – | > 50000 | –
COC(=O)CN(C)C(=O)C1=C(COC(C)=O)CS(=O)(=O)[C@@H]2[C@@H](OC)C(=O)N12 | 9500 | – | –
CO[C@H]1C(=O)N2C(C(=O)OCc3ccc(C(C)(C)C)cc3)=C(COC(C)=O)CS(=O)(=O)[C@H]12 | – | 200 | K obs / 1 [2]: Inverse progress curve was observed
CO[C@H]1C(=O)N2C(C(=O)N(C)CCC(=O)O)=C(COC(C)=O)CS(=O)(=O)[C@H]12 | 500 | – | –
CO[C@H]1C(=O)N2C(C(=O)N(C)CC(=O)OC(C)(C)C)=C(COC(C)=O)CS(=O)(=O)[C@H]12 | – | 200 | –
COC(=O)C1=C(COC(C)=O)CS(=O)(=O)[C@@H]2[C@@H](OC)C(=O)N12 | – | 200 | K obs / 1 [3]: 17000 M⁻¹ s⁻¹
CO[C@H]1C(=O)N2C(C(=O)N(C)CC(=O)O)=C(COC(C)=O)CS(=O)(=O)[C@H]12 | 300 | 5000 | –
CO[C@H]1C(=O)N2C(C(=O)N3CCOCC3)=C(COC(C)=O)CS(=O)(=O)[C@H]12 | 35000 | – | –
CO[C@H]1C(=O)N2C(C(=O)NCC(=O)O)=C(COC(C)=O)CS(=O)(=O)[C@H]12 | – | > 50000 | –
CCCC[C@H](NC(=O)OC(C)(C)C)[C@@H](O)C(=O)O[C@H]1C[C@@]2(O)[C@@H](OC(=O)c3ccccc3)[C@@H]3[C@]4(OC(C)=O)CO[C@@H]4C[C@H](O)[C@@]3(C)[C@@H](O)[C@H](OC(C)=O)C(=C1C)C2(C)C | 900 | – | –
CCOC(=O)COC(=O)C1=C(COC(C)=O)CS(=O)(=O)[C@@H]2[C@@H](OC)C(=O)N12 | – | 100 | –
COC(=O)CCN(C)C(=O)C1=C(COC(C)=O)CS(=O)(=O)[C@@H]2[C@@H](OC)C(=O)N12 | 6200 | – | –
CO[C@H]1C(=O)N2C(C(=O)OC(C)(C)C)=C(COC(C)=O)CS(=O)(=O)[C@H]12 | – | – | K obs / 1 [3]: 16000 M⁻¹ s⁻¹
CO[C@H]1C(=O)N2C(C(=O)N(C)C)=C(COC(C)=O)CS(=O)(=O)[C@H]12 | 3900 | 2000 | –
COc1ccc(COC(=O)C2=C(COC(C)=O)CS(=O)(=O)[C@@H]3[C@@H](OC)C(=O)N23)cc1 | – | 100 | K obs / 1 [2]: Inverse progress curve was observed
CO[C@H]1C(=O)N2C(C(=O)OCc3ccccc3)=C(COC(C)=O)CS(=O)(=O)[C@H]12 | – | 70 | K obs / 1 [4]: No time-dependent inhibition was observed
CO[C@H]1C(=O)N2C(C(=O)N(C)Cc3ccc(C(=O)O)cc3)=C(COC(C)=O)CS(=O)(=O)[C@H]12 | 8600 | 400 | –
CO[C@H]1C(=O)N2C(C(=O)OCc3ccc(C(=O)OC(C)(C)C)cc3)=C(COC(C)=O)CS(=O)(=O)[C@H]12 | – | 400 | K obs / 1 [4]: No time-dependent inhibition was observed
CO[C@H]1C(=O)N2C(C(=O)O)=C(COC(C)=O)CS(=O)(=O)[C@H]12 | – | > 50000 | –
CO[C@H]1C(=O)N2C(C(=O)N3CCCC3)=C(COC(C)=O)CS(=O)(=O)[C@H]12 | 27000 | – | –
